Test results as given in patent US12215085B2 (priority 2019, dated 2025).

Tested on: rats with beta-amyloid induced senile dementia
Experiment: Water maze test, beta-amyloid induced senile dementia rats
Assay type: in vivo, rat
Conditions: succinate; for orientation angle for reaching the platform / speed for reaching the platform / swimming path length for reaching the platform / time for reaching the platform: x ± s
[1] = Day 1, 0.7 mg/kg intragastric, 0.7 mg/kg
[2] = Day 1, 1.4 mg/kg intragastric, 1.4 mg/kg
[3] = Day 1, 2.8 mg/kg intragastric, 2.8 mg/kg
[4] = Day 2, 0.7 mg/kg intragastric, 0.7 mg/kg
[5] = Day 2, 1.4 mg/kg intragastric, 1.4 mg/kg
[6] = Day 2, 2.8 mg/kg intragastric, 2.8 mg/kg
[7] = Day 3, 0.7 mg/kg intragastric, 0.7 mg/kg
[8] = Day 3, 1.4 mg/kg intragastric, 1.4 mg/kg
[9] = Day 3, 2.8 mg/kg intragastric, 2.8 mg/kg
[10] = Day 4, 0.7 mg/kg intragastric, 0.7 mg/kg
[11] = Day 4, 1.4 mg/kg intragastric, 1.4 mg/kg
[12] = Day 4, 2.8 mg/kg intragastric, 2.8 mg/kg
[13] = Day 5, 0.7 mg/kg intragastric, 0.7 mg/kg
[14] = Day 5, 1.4 mg/kg intragastric, 1.4 mg/kg
[15] = Day 5, 2.8 mg/kg intragastric, 2.8 mg/kg
[16] = Day 6, 0.7 mg/kg intragastric, 0.7 mg/kg
[17] = Day 6, 1.4 mg/kg intragastric, 1.4 mg/kg
[18] = Day 6, 2.8 mg/kg intragastric, 2.8 mg/kg

Nc1c2c(nc3c1CCCC3)CCCC2.O=C(O)CCC(=O)O [Crystal Form K, 9-amino-1,2,3,4,5,6,7,8-octahydroacridine succinate]
adopted strategy for reaching the platform (the peripheral type and the random type %) [1]: 95.24% | orientation angle for reaching the platform [1]: 72.32 ± 21.32 ° | speed for reaching the platform [1]: 18.56 ± 4.91 cm/s | swimming path length for reaching the platform [1]: 1196.20 ± 260.35 cm | time for reaching the platform [1]: 70.00 ± 14.73 s | adopted strategy for reaching the platform (the peripheral type and the random type %) [2]: 94.82% | orientation angle for reaching the platform [2]: 71.28 ± 13.47 ° | speed for reaching the platform [2]: 18.24 ± 6.88 cm/s | swimming path length for reaching the platform [2]: 1151.50 ± 313.31 cm | time for reaching the platform [2]: 70.50 ± 14.60 s | adopted strategy for reaching the platform (the peripheral type and the random type %) [3]: 93.17% | orientation angle for reaching the platform [3]: 68.37 ± 20.14 ° | speed for reaching the platform [3]: 19.42 ± 5.93 cm/s | swimming path length for reaching the platform [3]: 1188.50 ± 273.99 cm | time for reaching the platform [3]: 66.90 ± 11.45 s | adopted strategy for reaching the platform (the peripheral type and the random type %) [4]: 79.34% | orientation angle for reaching the platform [4]: 62.15 ± 19.37 ° | speed for reaching the platform [4]: 19.44 ± 9.85 cm/s | swimming path length for reaching the platform [4]: 796.10 ± 179.65 cm | time for reaching the platform [4]: 48.50 ± 15.28 s | adopted strategy for reaching the platform (the peripheral type and the random type %) [5]: 78.13% | orientation angle for reaching the platform [5]: 63.27 ± 10.38 ° | speed for reaching the platform [5]: 20.42 ± 7.24 cm/s | swimming path length for reaching the platform [5]: 772.80 ± 229.71 cm | time for reaching the platform [5]: 51.60 ± 17.26 s | adopted strategy for reaching the platform (the peripheral type and the random type %) [6]: 80.67% | orientation angle for reaching the platform [6]: 66.21 ± 18.35 ° | speed for reaching the platform [6]: 20.89 ± 6.68 cm/s | swimming path length for reaching the platform [6]: 770.70 ± 248.67 cm | time for reaching the platform [6]: 50.40 ± 17.10 s | adopted strategy for reaching the platform (the peripheral type and the random type %) [7]: 80.31% | orientation angle for reaching the platform [7]: 58.23 ± 27.90 ° | speed for reaching the platform [7]: 19.76 ± 10.49 cm/s | swimming path length for reaching the platform [7]: 760.80 ± 277.08 cm | time for reaching the platform [7]: 41.80 ± 11.68 s | adopted strategy for reaching the platform (the peripheral type and the random type %) [8]: 77.37% | orientation angle for reaching the platform [8]: 54.77 ± 18.42 ° | speed for reaching the platform [8]: 20.07 ± 7.36 cm/s | swimming path length for reaching the platform [8]: 737.60 ± 223.46 cm | time for reaching the platform [8]: 53.40 ± 23.24 s | adopted strategy for reaching the platform (the peripheral type and the random type %) [9]: 75.48% | orientation angle for reaching the platform [9]: 52.93 ± 17.44 ° | speed for reaching the platform [9]: 20.00 ± 8.73 cm/s | swimming path length for reaching the platform [9]: 584.50 ± 181.92 cm | time for reaching the platform [9]: 40.50 ± 20.47 s | adopted strategy for reaching the platform (the peripheral type and the random type %) [10]: 70.66% | orientation angle for reaching the platform [10]: 57.32 ± 31.22 ° | speed for reaching the platform [10]: 22.17 ± 13.09 cm/s | swimming path length for reaching the platform [10]: 685.10 ± 319.17 cm | time for reaching the platform [10]: 38.10 ± 22.41 s | adopted strategy for reaching the platform (the peripheral type and the random type %) [11]: 71.34% | orientation angle for reaching the platform [11]: 51.48 ± 11.38 ° | speed for reaching the platform [11]: 20.53 ± 11.21 cm/s | swimming path length for reaching the platform [11]: 653.50 ± 321.17 cm | time for reaching the platform [11]: 36.00 ± 20.42 s | adopted strategy for reaching the platform (the peripheral type and the random type %) [12]: 68.99% | orientation angle for reaching the platform [12]: 50.22 ± 18.92 ° | speed for reaching the platform [12]: 21.48 ± 9.09 cm/s | swimming path length for reaching the platform [12]: 544.70 ± 179.35 cm | time for reaching the platform [12]: 37.00 ± 17.54 s | adopted strategy for reaching the platform (the peripheral type and the random type %) [13]: 71.53% | orientation angle for reaching the platform [13]: 54.22 ± 28.34 ° | speed for reaching the platform [13]: 21.30 ± 9.86 cm/s | swimming path length for reaching the platform [13]: 563.90 ± 154.71 cm | time for reaching the platform [13]: 36.20 ± 27.16 s | adopted strategy for reaching the platform (the peripheral type and the random type %) [14]: 69.33% | orientation angle for reaching the platform [14]: 53.62 ± 17.88 ° | speed for reaching the platform [14]: 22.73 ± 17.69 cm/s | swimming path length for reaching the platform [14]: 562.80 ± 280.10 cm | time for reaching the platform [14]: 33.50 ± 21.95 s | adopted strategy for reaching the platform (the peripheral type and the random type %) [15]: 67.59% | orientation angle for reaching the platform [15]: 51.22 ± 20.11 ° | speed for reaching the platform [15]: 21.90 ± 10.66 cm/s | swimming path length for reaching the platform [15]: 481.50 ± 203.96 cm | time for reaching the platform [15]: 30.10 ± 15.85 s | adopted strategy for reaching the platform (the peripheral type and the random type %) [16]: 68.55% | orientation angle for reaching the platform [16]: 52.11 ± 22.00 ° | speed for reaching the platform [16]: 21.55 ± 6.47 cm/s | swimming path length for reaching the platform [16]: 513.30 ± 194.29 cm | time for reaching the platform [16]: 35.90 ± 24.22 s | adopted strategy for reaching the platform (the peripheral type and the random type %) [17]: 65.72% | orientation angle for reaching the platform [17]: 50.65 ± 18.77 ° | speed for reaching the platform [17]: 20.62 ± 7.36 cm/s | swimming path length for reaching the platform [17]: 523.30 ± 182.50 cm | time for reaching the platform [17]: 38.90 ± 22.26 s | adopted strategy for reaching the platform (the peripheral type and the random type %) [18]: 60.14% | orientation angle for reaching the platform [18]: 48.78 ± 16.83 ° | speed for reaching the platform [18]: 18.52 ± 7.78 cm/s | swimming path length for reaching the platform [18]: 540.50 ± 166.77 cm | time for reaching the platform [18]: 36.10 ± 22.34 s
